Data on 7 molecules can be found in ChEMBL document CHEMBL1139487, “Discovery of corticotropin releasing factor 2 receptor selective sauvagine analogues for treatment of skeletal muscle atrophy” (J Med Chem, 2005).

Experiment [1] has as its target T1, Corticotropin-releasing factor receptor 1 (Mus musculus) (UniProt P35347).
T1 sequence (whole entry): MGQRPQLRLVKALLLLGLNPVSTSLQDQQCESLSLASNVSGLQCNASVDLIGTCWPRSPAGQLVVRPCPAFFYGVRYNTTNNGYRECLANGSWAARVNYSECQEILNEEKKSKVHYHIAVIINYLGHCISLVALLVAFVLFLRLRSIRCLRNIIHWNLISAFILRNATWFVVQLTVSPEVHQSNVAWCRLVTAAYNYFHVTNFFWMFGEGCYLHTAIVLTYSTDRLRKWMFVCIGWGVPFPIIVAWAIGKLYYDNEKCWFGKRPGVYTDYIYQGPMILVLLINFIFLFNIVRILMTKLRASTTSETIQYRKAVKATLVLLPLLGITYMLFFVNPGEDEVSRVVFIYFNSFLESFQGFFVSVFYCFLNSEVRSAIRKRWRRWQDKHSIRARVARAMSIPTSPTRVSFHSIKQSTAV
As to the kind of experiment: In vitro agonistic activity against mouse corticotropin releasing factor 1 receptor. The class given is functional.

The target in experiment [2] is Corticotropin-releasing factor receptor 2 (Mus musculus) (UniProt Q60748). Nature of the experiment: In vitro agonistic activity against mouse corticotropin releasing factor 2 receptor. The class given is functional.
Corticotropin-releasing factor receptor 2 (Mus musculus), sequence (Q60748 whole entry): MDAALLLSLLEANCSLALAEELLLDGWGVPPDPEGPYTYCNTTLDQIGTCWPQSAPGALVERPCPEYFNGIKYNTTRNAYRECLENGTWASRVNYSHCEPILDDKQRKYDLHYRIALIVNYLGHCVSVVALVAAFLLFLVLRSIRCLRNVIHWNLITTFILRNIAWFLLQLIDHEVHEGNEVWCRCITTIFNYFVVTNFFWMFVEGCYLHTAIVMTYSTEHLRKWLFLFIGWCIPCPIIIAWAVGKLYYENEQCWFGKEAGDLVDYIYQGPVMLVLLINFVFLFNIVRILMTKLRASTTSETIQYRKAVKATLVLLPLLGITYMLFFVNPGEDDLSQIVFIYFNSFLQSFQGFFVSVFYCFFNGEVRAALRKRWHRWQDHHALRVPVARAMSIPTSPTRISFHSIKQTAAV
Experiment [3] is filed under the species Mus musculus. Nature of the experiment: Selectivity ratio of EC50s for mouse corticotropin releasing factor receptors 1 and 2.

Square brackets hold non-standard residues; d marks the D form. Peptide text beside a SMILES is read from it. pGlu = O=C1CC[C@@H](C(=O)O)N1

One may read the Emax as the maximal effect, on the per cent scale that the assay sets.

Turning to `CC[C@H](C)[C@H](NC(=O)[C@@H](NC(=O)[C@H](CC(=O)O)NC(=O)[C@H](CC(C)C)NC(=O)[C@H](CC(C)C)NC(=O)[C@H](CC(C)C)NC(=O)[C@H](CCCN=C(N)N)NC(=O)[C@H](CC(N)=O)NC(=O)[C@H](CC(N)=O)NC(=O)[C@H](C)NC(=O)[C@H](C)NC(=O)[C@H](CCC(N)=O)NC(=O)[C@H](CCC(N)=O)NC(=O)[C@H](CCCCN)NC(=O)[C@H](CCC(=O)O)NC(=O)[C@H](CCCCN)NC(=O)[C@H](CCC(=O)O)NC(=O)[C@H](CCC(N)=O)NC(=O)[C@H](CCCCN)NC(=O)[C@H](CCC(=O)O)NC(=O)[C@@H](NC(=O)[C@H](CCC(=O)O)NC(=O)[C@@H](NC(=O)[C@H](CCSC)NC(=O)[C@H](CCCCN)NC(=O)[C@H](CCCN=C(N)N)NC(=O)[C@H](CC(C)C)NC(=O)[C@H](CC(C)C)NC(=O)[C@H](CCC(N)=O)NC(=O)[C@H](Cc1ccc(O)cc1)NC(=O)[C@@H]1CCCN1C(=O)[C@H](CC(C)C)NC(=O)[C@H](CC(=O)O)NC(=O)[C@@H](NC(=O)[C@H](CO)NC(=O)[C@@H](NC(=O)[C@@H]1CCCN1C(=O)[C@@H]1CCCN1C(=O)CNC(=O)[C@@H]1CCC(=O)N1)[C@@H](C)CC)[C@@H](C)CC)[C@@H](C)CC)[C@@H](C)CC)[C@@H](C)O)C(=O)O`, the Emax is 100% in experiment [1] and 99% in experiment [2]. Also, the Selectivity in experiment [3] stood at 47.
For `CC[C@H](C)[C@H](NC(=O)[C@@H](NC(=O)[C@H](CC(=O)O)NC(=O)[C@H](CC(C)C)NC(=O)[C@H](CC(C)C)NC(=O)[C@H](CC(C)C)NC(=O)[C@H](CCCN=C(N)N)NC(=O)[C@H](CC(N)=O)NC(=O)[C@H](CC(N)=O)NC(=O)[C@H](C)NC(=O)[C@H](C)NC(=O)[C@H](CCC(N)=O)NC(=O)[C@H](CCC(N)=O)NC(=O)[C@H](CCCCN)NC(=O)[C@H](CCC(=O)O)NC(=O)[C@H](CCCCN)NC(=O)[C@H](CCC(=O)O)NC(=O)[C@H](CCC(N)=O)NC(=O)[C@H](CCCCN)NC(=O)[C@H](CCC(=O)O)NC(=O)[C@@H](NC(=O)[C@H](CCC(=O)O)NC(=O)[C@@H](NC(=O)[C@H](CCSC)NC(=O)[C@H](CCCCN)NC(=O)[C@H](CCCN=C(N)N)NC(=O)[C@H](CC(C)C)NC(=O)[C@H](CC(C)C)NC(=O)[C@H](CCC(N)=O)NC(=O)[C@H](CCC(N)=O)NC(=O)[C@@H]1CCCN1C(=O)[C@H](CC(C)C)NC(=O)[C@H](CC(=O)O)NC(=O)[C@@H](NC(=O)[C@H](CO)NC(=O)[C@@H](NC(=O)[C@@H]1CCCN1C(=O)[C@@H]1CCCN1C(=O)CNC(=O)[C@@H]1CCC(=O)N1)[C@@H](C)CC)[C@@H](C)CC)[C@@H](C)CC)[C@@H](C)CC)[C@@H](C)O)C(=O)O`, in that order: 50%, 100% and 33.
The matching figures for `CC[C@H](C)[C@H](NC(=O)[C@@H](NC(=O)[C@H](CC(=O)O)NC(=O)[C@H](CC(C)C)NC(=O)[C@H](CC(C)C)NC(=O)[C@H](CC(C)C)NC(=O)[C@H](CCCN=C(N)N)NC(=O)[C@H](CC(N)=O)NC(=O)[C@H](CC(N)=O)NC(=O)[C@H](C)NC(=O)[C@H](C)NC(=O)[C@H](CCC(N)=O)NC(=O)[C@H](CCC(N)=O)NC(=O)[C@H](CCCCN)NC(=O)[C@H](CCC(=O)O)NC(=O)[C@H](CCCCN)NC(=O)[C@H](CCC(=O)O)NC(=O)[C@H](CCC(N)=O)NC(=O)[C@H](CCCCN)NC(=O)[C@H](CCC(=O)O)NC(=O)[C@@H](NC(=O)[C@H](CCC(=O)O)NC(=O)[C@@H](NC(=O)[C@H](CCSC)NC(=O)[C@H](CCCCN)NC(=O)[C@H](CCCN=C(N)N)NC(=O)[C@H](CC(C)C)NC(=O)[C@H](CC(C)C)NC(=O)[C@H](CC(C)C)NC(=O)[C@@H](NC(=O)[C@@H]1CCCN1C(=O)[C@H](CC(C)C)NC(=O)[C@H](CC(=O)O)NC(=O)[C@@H](NC(=O)[C@H](CO)NC(=O)[C@@H](NC(=O)[C@@H]1CCCN1C(=O)[C@@H]1CCCN1C(=O)CNC(=O)[C@@H]1CCC(=O)N1)[C@@H](C)CC)[C@@H](C)CC)[C@@H](C)O)[C@@H](C)CC)[C@@H](C)CC)[C@@H](C)O)C(=O)O`: 48%, 100% and above 49.
The matching figures for `CC[C@H](C)[C@H](NC(=O)[C@@H](NC(=O)[C@H](CC(=O)O)NC(=O)[C@H](CC(C)C)NC(=O)[C@H](CC(C)C)NC(=O)[C@H](CC(C)C)NC(=O)[C@H](CCCN=C(N)N)NC(=O)[C@H](CC(N)=O)NC(=O)[C@H](CC(N)=O)NC(=O)[C@H](C)NC(=O)[C@H](C)NC(=O)[C@H](CCC(N)=O)NC(=O)[C@H](CCC(N)=O)NC(=O)[C@H](CCCCN)NC(=O)[C@H](CCC(=O)O)NC(=O)[C@H](CCCCN)NC(=O)[C@H](CCC(=O)O)NC(=O)[C@H](CCC(N)=O)NC(=O)[C@H](CCCCN)NC(=O)[C@H](CCC(=O)O)NC(=O)[C@@H](NC(=O)[C@H](CCC(=O)O)NC(=O)[C@@H](NC(=O)[C@H](CCSC)NC(=O)[C@H](CCCCN)NC(=O)[C@H](CCCN=C(N)N)NC(=O)[C@H](CC(C)C)NC(=O)[C@H](CC(C)C)NC(=O)CNC(=O)[C@H](CC(C)C)NC(=O)[C@@H]1CCCN1C(=O)[C@H](CC(C)C)NC(=O)[C@H](CC(=O)O)NC(=O)[C@@H](NC(=O)[C@H](CO)NC(=O)[C@@H](NC(=O)[C@@H]1CCCN1C(=O)[C@@H]1CCCN1C(=O)CNC(=O)[C@@H]1CCC(=O)N1)[C@@H](C)CC)[C@@H](C)CC)[C@@H](C)CC)[C@@H](C)CC)[C@@H](C)O)C(=O)O` ([pGlu]GPPISIDLPLGLLRKMIEIEKQEKEKQQAANNRLLLDTI-OH): 99%, 82% and 14.
As for `CC[C@H](C)[C@H](NC(=O)[C@@H](NC(=O)[C@H](CC(=O)O)NC(=O)[C@H](CC(C)C)NC(=O)[C@H](CC(C)C)NC(=O)[C@H](CC(C)C)NC(=O)[C@H](CCCN=C(N)N)NC(=O)[C@H](CC(N)=O)NC(=O)[C@H](CC(N)=O)NC(=O)[C@H](C)NC(=O)[C@H](C)NC(=O)[C@H](CCC(N)=O)NC(=O)[C@H](CCC(N)=O)NC(=O)[C@H](CCCCN)NC(=O)[C@H](CCC(=O)O)NC(=O)[C@H](CCCCN)NC(=O)[C@H](CCC(=O)O)NC(=O)[C@H](CCC(N)=O)NC(=O)[C@H](CCCCN)NC(=O)[C@H](CCC(=O)O)NC(=O)[C@@H](NC(=O)[C@H](CCC(=O)O)NC(=O)[C@@H](NC(=O)[C@H](CCSC)NC(=O)[C@H](CCCCN)NC(=O)[C@H](CCCN=C(N)N)NC(=O)[C@H](CC(C)C)NC(=O)[C@H](CC(C)C)NC(=O)[C@H](CC(C)C)NC(=O)[C@H](Cc1ccc(O)cc1)NC(=O)[C@@H]1CCCN1C(=O)[C@H](CC(C)C)NC(=O)[C@H](CC(=O)O)NC(=O)[C@@H](NC(=O)[C@H](CO)NC(=O)[C@@H](NC(=O)[C@@H]1CCCN1C(=O)[C@@H]1CCCN1C(=O)CNC(=O)[C@@H]1CCC(=O)N1)[C@@H](C)CC)[C@@H](C)CC)[C@@H](C)CC)[C@@H](C)CC)[C@@H](C)O)C(=O)O`, the Emax in experiment [1] turned out to be 86%; in experiment [2] it was 94%. Further, the Selectivity in experiment [3] turned out to be 15.
For `CC[C@H](C)[C@H](NC(=O)[C@@H](NC(=O)[C@H](CC(=O)O)NC(=O)[C@H](CC(C)C)NC(=O)[C@H](CC(C)C)NC(=O)[C@H](CC(C)C)NC(=O)[C@H](CCCN=C(N)N)NC(=O)[C@H](CC(N)=O)NC(=O)[C@H](CC(N)=O)NC(=O)[C@H](C)NC(=O)[C@H](C)NC(=O)[C@H](CCC(N)=O)NC(=O)[C@H](CCC(N)=O)NC(=O)[C@H](CCCCN)NC(=O)[C@H](CCC(=O)O)NC(=O)[C@H](CCCCN)NC(=O)[C@H](CCC(=O)O)NC(=O)[C@H](CCC(N)=O)NC(=O)[C@H](CCCCN)NC(=O)[C@H](CCC(=O)O)NC(=O)[C@@H](NC(=O)[C@H](CCC(=O)O)NC(=O)[C@@H](NC(=O)[C@H](CCSC)NC(=O)[C@H](CCCCN)NC(=O)[C@H](CCCN=C(N)N)NC(=O)[C@H](CC(C)C)NC(=O)[C@H](CC(C)C)NC(=O)[C@H](Cc1ccc(O)cc1)NC(=O)[C@H](Cc1ccc(O)cc1)NC(=O)[C@@H]1CCCN1C(=O)[C@H](CC(C)C)NC(=O)[C@H](CC(=O)O)NC(=O)[C@@H](NC(=O)[C@H](CO)NC(=O)[C@@H](NC(=O)[C@@H]1CCCN1C(=O)[C@@H]1CCCN1C(=O)CNC(=O)[C@@H]1CCC(=O)N1)[C@@H](C)CC)[C@@H](C)CC)[C@@H](C)CC)[C@@H](C)CC)[C@@H](C)O)C(=O)O`, in that order: 99%, 93% and 15.
Regarding `CC[C@H](C)[C@H](NC(=O)[C@@H](NC(=O)[C@H](CC(=O)O)NC(=O)[C@H](CC(C)C)NC(=O)[C@H](CC(C)C)NC(=O)[C@H](CC(C)C)NC(=O)[C@H](CCCN=C(N)N)NC(=O)[C@H](CC(N)=O)NC(=O)[C@H](CC(N)=O)NC(=O)[C@H](C)NC(=O)[C@H](C)NC(=O)[C@H](CCC(N)=O)NC(=O)[C@H](CCC(N)=O)NC(=O)[C@H](CCCCN)NC(=O)[C@H](CCC(=O)O)NC(=O)[C@H](CCCCN)NC(=O)[C@H](CCC(=O)O)NC(=O)[C@H](CCC(N)=O)NC(=O)[C@H](CCCCN)NC(=O)[C@H](CCC(=O)O)NC(=O)[C@@H](NC(=O)[C@H](CCC(=O)O)NC(=O)[C@@H](NC(=O)[C@H](CCSC)NC(=O)[C@H](CCCCN)NC(=O)[C@H](CCCN=C(N)N)NC(=O)[C@H](CC(C)C)NC(=O)[C@H](CC(C)C)NC(=O)[C@H](Cc1ccc(O)cc1)NC(=O)[C@H](CC(C)C)NC(=O)[C@@H]1CCCN1C(=O)[C@H](CC(C)C)NC(=O)[C@H](CC(=O)O)NC(=O)[C@@H](NC(=O)[C@H](CO)NC(=O)[C@@H](NC(=O)[C@@H]1CCCN1C(=O)[C@@H]1CCCN1C(=O)CNC(=O)[C@@H]1CCC(=O)N1)[C@@H](C)CC)[C@@H](C)CC)[C@@H](C)CC)[C@@H](C)CC)[C@@H](C)O)C(=O)O` ([pGlu]GPPISIDLPLYLLRKMIEIEKQEKEKQQAANNRLLLDTI-OH), the Emax in experiment [1] was 79%; in experiment [2] it was 73%. For the same molecule, in experiment [3], the Selectivity is 16.
